Experimental findings from US20170165274A1, “COMPOSITION” (SHIELD TX (UK) LTD., priority 2014, published 2017) are described below.

Read-outs that look alike come from different tables or passages of the source.

Series [1] has as its system nasal mucosa. Nature of the series: Contact with the nasal mucosa (irritation). The settings on record: contact for 10 minute periods.
For series [2], the system named is grazed skin. As to the kind of experiment: Short term exposure on grazed skin in two volunteers (irritation). The settings on record: 10^−4 M, short term (5 mins) exposure.
A short description of series [3]: Stability of iron hydroxypyrones in liquid as a function of pH. It is filed as physicochemical. The settings on record: acid pH. The text has this: There is another advantage of a liquid formulation of a ferric tri (hydroxypyrone) in that there is no need to have an acidified preparation for either efficacy or stability. […] This is a significant difference between ferric pyrones in solution and ferrous salts used in medicine.
Unlike the ferrous products a maximum stability of the liquid ferric pyrones and ferrous products containing maltol is achieved in the pH range 5.5-8. With this knowledge the formulations developed require ingredients suited to this constraint and also standardisation of colour and taste for patient acceptability. At higher concentrations of active a suspension formulation may be preferred. Furthermore the excipients must not reduce the excellent bio-availability of iron from iron pyrone formulations.

Series [4] relates to grazed skin. As to conditions: human, in vivo.
Series [5] deals with nasal mucosa. As to conditions: in vivo.

With `O=S(=O)([O-])[O-].[Fe+2]` [FeS04, iron sulphate], in the series on nasal mucosa [1], the “Irritancy to nasal mucosa” value is on record as “neither iron tri-maltol or iron sulphate in contact with the nasal mucosa for 10 minute periods proved to be irritant”. Also, in the series on grazed skin [2], the “Irritation of grazed skin” value is given as “did not induce irritation”.
For the molecule `Cc1occc(=O)c1[O-].Cc1occc(=O)c1[O-].Cc1occc(=O)c1[O-].[Fe+3]` [Fe[Maltol]3, ferric trimaltol], the “Stability behaviour in liquid” value in series [3] was “disproportionates at acid pH values”. In the series with grazed skin [4], the “Irritation of grazed skin” value was “did not induce irritation”. In addition, the “Irritancy to nasal mucosa” value with nasal mucosa [5] is listed as “neither iron tri-maltol or iron sulphate in contact with the nasal mucosa for 10 minute periods proved to be irritant”.
